# Test results published in patent US20120128630A1, “1-(6 MEMBERS AZO-HETEROCYCLIC)-PYRROLIN-2-ONE COMPOUNDS AS INHIBITORS OF HEPATITIS C NS5B POLYMERASE, THE PHARAMACEUTICAL COMPOSITION THEREOF AND THEIR THERAPEUTIC USE” (priority 2009, published 2012).
# pEC50: −log10 of the molar value.
# What was measured:
# HCV NS5B genotype 1b = target: T1, HCV NS5B genotype 1b (Hepatitis C virus genotype 1b, UniProt Q9WMX2); test: 3D-SCREEN assay (NS5B 3D-Screen platform, luciferase reporter gene); format: cell-based; settings: EC50_3DS_NS5B
# T1 construct: The protein was expressed with a 21 amino acid C-terminal deletion to remove transmembrane domain; expressed in transfected cells; host or cells: Huh-7
# Excerpt: cDNA encoding HCV NS5B genotype 1b, was cloned in frame with Gal4-DNA Binding Domain. The protein was expressed with a 21 amino acid C-terminal deletion to remove transmembrane domain. Expression of NS5BΔ21/Gal4 DBD fusion protein was under control of SV40 early promoter. 3D-Sensor peptide was cloned in frame with VP16 activation domain. Expression of 3D-Sensor/VP16 AD fusion protein was under control of CMV promoter. Expression of the firefly luciferase reporter gene was inducible by the [Target protein/conformation sensitive peptide/VP16AD] complex.
# It is a single-target, cell based assay. Briefly, expression of a reporter gene depends on the interaction of a short peptide, thereafter named 3D-Sensor, and native conformation of the target protein. Whenever the conformation of the target protein is modified, interaction between 3D-sensor and target protein is disrupted and reporter gene is not expressed anymore. Conformation modifiers are identified by loss of expression of reporter gene. NS5B 3D-Screen platform was generated in Huh-7 cell lines by transient transfection of three expression vectors encoding respectively
# (i) HCV NS5BΔ21/Gal4-DBD fusion protein
# (ii) the 3D-sensor peptide I4/VP16 fusion protein
# (iii) the firefly luciferase reporter gene
# Huh-7 cells were dissociated the day before transfection and seeded in T175 flasks at a density of 10^7 cells in 30 ml culture medium. Equimolar ratios of vectors were transfected in cell according to optimized jetPEI transfection protocol (PolyPlus Transfection, Illkirch, France) and 10 μg total DNA/10^6 cells. Transfection was performed for 2 hours at 37° C. and 5% CO2 in a humidified atmosphere. After two hours cells were dissociated and seeded in 96 wells plates at a density of 25,000 cells per well and 90 μl culture medium. 10 μl of compounds to be tested were added 2 hours after seeding. Final concentration of DMSO was 1%. Cells were incubated in the presence of compounds for 24 hours after which expression of firefly luciferase reporter gene was quantified. Briefly, culture medium was removed and cells were lysed by addition of 100 μl of lysis buffer containing 125 mM Tris Phosphate ph 7.8, 10 mM EDTA, 5 mM DTT, 50% glycerol and 5% Triton. Plates were vortexed 10 min at 1300 rpm. Cell lysat was transferred in OpaqueWhite Assay 96 well Flat Bottom plates. 100 μl of luciferin solution 1× were added to each well. Luciferin solution contained 40 mM Tris Phosphate ph 7.8, 0.2 mM EDTA, 67 mM DTT, 2.14 mM MgCl2, 5.4 mM MgSO4, 4.7×10^−4 M luciferin, 5.3×10^−4 M ATP and 2.7×10^−4 M Acetyl co enzyme A. Luminescence was immediately measured with Berthold Microlumat Plus LB 96V luminometer with an integration of 0.5 sec. Inhibition was calculated using the formula: % inhibition=(1−(read/average max))*100. Average max=signal in absence of compound
# [1] = Table 1, 3D-SCREEN assay results, Huh-7 cells, 24 hours with compound, firefly luciferase reporter
# [2] = Table 2, titled Replicon assay results
SMILES,melting point,pEC50 (HCV NS5B genotype 1b; [1]),pEC50 (HCV NS5B genotype 1b; [2])
"COc1ccc(C(=O)C2=C(O)C(=O)N(c3ccc(C)nn3)C2c2ccc(OC(F)(F)F)cc2)cc1 (centres unmarked) [Example 23, 3-hydroxy-4-(4-methoxy-benzoyl)-1-(6-methyl-pyridazin-3-yl)-5-(4-trifluoromethoxy-phenyl)-1,5-dihydro-pyrrol-2-one]",265 °C,6.00,–
"COc1ccc(C2C(C(=O)c3ccc(OC(F)(F)F)cc3)=C(O)C(=O)N2c2ccc(C)nn2)cc1 (centres unmarked) [Example 24, 3-hydroxy-5-(4-methoxy-phenyl)-1-(6-methyl-pyridazin-3-yl)-4-(4-trifluoromethoxy-benzoyl)-1,5-dihydro-pyrrol-2-one]",279 °C,5.52,–
"Cc1ccc(C(=O)C2=C(O)C(=O)N(c3ccc(C)nn3)C2c2ccc(OC(C)C)cc2)cc1 (centres unmarked) [Example 33, 3-hydroxy-5-(4-isopropoxy-phenyl)-4-(4-methyl-benzoyl)-1-(6-methyl-pyridazin-3-yl)-1,5-dihydro-pyrrol-2-one]",268 to 272 °C,5.70,–
"Cc1ccc(C(=O)C2=C(O)C(=O)N(c3ccc(N(C)C)nn3)C2c2ccc(C(C)C)cc2)cc1 (centres unmarked) [Example 37, 1-(6-dimethylamino-pyridazin-3-yl)-3-hydroxy-5-(4-isopropyl-phenyl)-4-(4-methyl-benzoyl)-1,5-dihydro-pyrrol-2-one]",281 °C,5.05,–
"Cc1ccc(C(=O)C2=C(O)C(=O)N(c3ccc(C)nn3)C2c2cccc(OC(C)C)c2)cc1 (centres unmarked) [Example 38, 3-hydroxy-5-(3-isopropoxy-phenyl)-4-(4-methyl-benzoyl)-1-(6-methyl-pyridazin-3-yl)-1,5-dihydro-pyrrol-2-one]",243 to 245 °C,5.00,–
"Cc1ccc(C(=O)C2=C(O)C(=O)N(c3ccc(C)cn3)C2c2ccc(C(C)C)cc2)cc1 (centres unmarked) [Example 41, 3-hydroxy-5-(4-isopropyl-phenyl)-4-(4-methyl-benzoyl)-1-(5-methyl-pyridin-2-yl)-1,5-dihydro-pyrrol-2-one]",259 to 261 °C,5.15,–
"Cc1ccc(N2C(=O)C(O)=C(C(=O)c3ccc(C(C)C)cc3)C2c2ccc(N3CCOCC3)cc2)nn1 (centres unmarked) [Example 58, 3-hydroxy-4-(4-isopropyl-benzoyl)-1-(6-methyl-pyridazin-3-yl)-5-(4-morpholin-4-yl-phenyl)-1,5-dihydro-pyrrol-2-one]",293 to 294 °C,5.30,–
"Cc1ccc(N2C(=O)C(O)=C(C(=O)c3ccc(C(C)C)cc3)C2c2ccc(C(C)C)cc2)cn1.Cl (centres unmarked) [Example 66, 5-[3-hydroxy-4-(4-isopropyl-benzoyl)-5-(4-isopropyl-phenyl)-2-oxo-2,5-dihydro-pyrrol-1-yl]-2-methyl-pyridinium; chloride]",165 °C,5.70,–
"COCCOc1ccc(C(=O)C2=C(O)C(=O)N(c3ccc(C)nn3)C2c2ccc(OC(F)(F)F)cc2)cc1 (centres unmarked) [Example 85, 3-Hydroxy-4-[4-(2-methoxy-ethoxy)-benzoyl]-1-(6-methyl-pyridazin-3-yl)-5-(4-trifluoromethoxy-phenyl)-1,5-dihydro-pyrrol-2-one]",216 to 219 °C,–,> 5.00
"Cc1ccc(N2C(=O)C(O)=C(C(=O)c3ccc(C(C)C)cc3)C2c2ccc(Cl)cc2)nn1 (centres unmarked) [Example 87, 5-(4-chloro-phenyl)-3-hydroxy-4-(4-isopropyl-benzoyl)-1-(6-methyl-pyridazin-3-yl)-1,5-dihydro-pyrrol-2-one]",258 to 260 °C,–,> 5.00
"CCOc1ccc(C(=O)C2=C(O)C(=O)N(c3ccc(C)nn3)C2c2ccc(OC(F)(F)F)cc2)cc1 (centres unmarked) [Example 101, 4-(4-ethoxy-benzoyl)-3-hydroxy-1-(6-methyl-pyridazin-3-yl)-5-(4-trifluoromethoxy-phenyl)-1,5-dihydro-pyrrol-2-one]",255 to 257 °C,–,> 5.00
"Cc1ccc(N2C(=O)C(O)=C(C(=O)c3ccc(C(C)C)cc3)C2c2ccc(OC(C)C)cn2)nn1 (centres unmarked) [Example 121, 3-hydroxy-5-(5-isopropoxy-pyridin-2-yl)-4-(4-isopropyl-benzoyl)-1-(6-methyl-pyridazin-3-yl)-1,5-dihydro-pyrrol-2-one]",243 to 245 °C,–,> 5.00
"Cc1ccc(N2C(=O)C(O)=C(C(=O)c3ccc(C(F)(F)F)nc3)C2c2ccc(OC(F)(F)F)cc2)nn1 (centres unmarked) [Example 126, 3-hydroxy-1-(6-methyl-pyridazin-3-yl)-5-(4-trifluoromethoxy-phenyl)-4-(6-trifluoromethyl-pyridine-3-carbonyl)-1,5-dihydro-pyrrol-2-one]",172 °C,–,> 5.00
"Cc1ccc(N2C(=O)C(O)=C(C(=O)c3ccc(C(C)C)cc3)C2c2ccc(N(C)C)cc2)nn1 (centres unmarked) [Example 135, 5-(4-dimethylamino-phenyl)-3-hydroxy-4-(4-isopropyl-benzoyl)-1-(6-methyl-pyridazin-3-yl)-1,5-dihydro-pyrrol-2-one]",283 to 286 °C,–,> 5.00
"Cc1ccc(N2C(=O)C(O)=C(C(=O)c3ccc(C(C)C)cc3)C2c2ccc(Cn3nccn3)cc2)nn1 (centres unmarked) [Example 147, 3-hydroxy-4-(4-isopropyl-benzoyl)-1-(6-methyl-pyridazin-3-yl)-5-(4-[1,2,3]triazol-2-ylmethyl-phenyl)-1,5-dihydro-pyrrol-2-one]",285 °C,–,> 5.00
"Cc1ccc(N2C(=O)C(O)=C(C(=O)c3ccc(C(C)C)cc3)[C@@H]2c2ccc(C(F)(F)F)cc2)nn1 [Example 190, 3-hydroxy-4-(4-isopropyl-benzoyl)-1-(6-methyl-pyridazin-3-yl)-5(S)-(4-trifluoromethyl-phenyl)-1,5-dihydro-pyrrol-2-one]",252 °C,–,> 5.00
